Measurements reported in patent publication EP0485217A2, “Hydantoin derivatives, and their use in preventing and treating diabetic complications and circulatory organ diseases” (priority 1990, dated 1992).
Like-named read-outs stand apart in the source and are kept apart here. Marks after values point to notes of the source that are not given here.

What was measured:
platelet aggregation [1] = assay: In-vitro inhibition of platelet aggregation in platelet rich plasma; assay type: cell-based, rat
Experimental: Then, the residues were centrifuged to obtain a supernatant fluid in the form of platelet poor plasma (PPP for short). For measurement, an amount of PRP collected from two to four animals was pooled. The platelet aggregation test was carried out with NBS HEMA TRACER (Model PAT-60 made by Niko Bioscience Co., Ltd.). […] After 1-minute preincubation, 3 µl of the test compound were added and, one minute later, 30 µl of an aggregation inducer (collagen or ADP) were introduced. Added to a control group was the test compound together with 3 µl of dimethyl sulfoxide. Upon the addition of the aggregation inducer, a maximum transmittance change was read to find a platelet aggregation change in %.

platelet aggregation [2] = assay: Ex-vivo inhibition of platelet aggregation after intravenous administration; assay type: in vivo, rat; settings: inhibition relative to control, blood 5 minutes after dosing; for Collagen (10 μM): inducer collagen
Experimental: The thus treated blood was centrifuged at 1500 rpm for 5 minutes to obtain a supernatant fluid in the form of PRP. The residues were then again centrifuged at 4°C and 3000 rpm for 10 minutes to obtain a supernatant fluid in the form of PPP. […] of PRP were put in a PRP cuvette having a stirrer bar with the transmittance set at 0%, while 300 µl of PPP were put in a PPP cuvette with the transmittance set at 100%. After 1-minute preincubation, 20 µl of an aggregation inducer (collagen or ADP) were introduced.
A control group, to which dimethylacetamide and tartaric acid in a ratio of 2/3 were given in a quantity of 1 ml/kg, was treated as with the test group. Upon the addition of the aggregation inducer, a maximum transmittance change was read to find a platelet aggregation change in %.

right atrium = assay: Extracted heart, right atrium sample (heart rate); design: species or system Hartley guinea pigs; settings: Cavia porcellus, read-out: Heart Rates
From the text: (§1) Stunned by receving a blow on the heads, Hartley guinea pigs (weighing 300-400 g) were fixed on the back regions to extract their hearts. […] This vessel was previously filled with a Krebs-Henseleit solution and the above gaseous mixture continued to be supplied thereto during preparing the sample.
(§2) In order to prepare the sample, the right and left atria were cut out of the ventricular muscule along the atriventricular sulcus from the center of both the right and left auricles.
The contraction of the sample was recorded on a recorder through an FD pickup simultaneously with counting and recording the beat with an instantaneous cardiograph unit.

left atrium = assay: Extracted heart, left atrium sample (systole force, electrically stimulated); design: species or system Hartley guinea pigs; settings: Cavia porcellus, read-out: Systole Forces
From the text: as §1, §2
While a platinum bipolar electrode attached to the above-mentioned micro wire clamp was in contact with the atrium, stimuli were given to it by 1-Hz, 2-msec. and 10-V rectangular waves derived through an electrical stimulator and an isolator to record the movement of said atrium with an FD pickup connected with it through silk thread.

[3] = tested on: Extracted Guinea Pigs' Aortae; assay: Relaxation of extracted thoracic aorta contracted by KCl or NE; design: species or system Hartley guinea pigs; settings: Cavia porcellus
From the text: Stunned by receiving a blow on the head, Hartley guinea pigs (weighing 300-500 g) were fixed at the back regions, and the thoracic aortae were then extracted to prepare helical samples, each ca. 2 mm in width and ca. 25 mm in length. Each sample was suspended in a Magnus tube under a load of ca. 1 g and connected at the upper end with an FD pickup by means of silk thread to record its isometric tension change on a recorder.
Prior to initiating the experiment, the sample was allowed to stand for 60 to 90 minutes, during which the Krebs-Henseleit solution was replaced by a new one at an interval of 20 to 30 minutes. […] Finally, papaverine was additionally provided to regulate the final concentration to 2 x 10- ^5g/ml, thereby observing and recording what relaxing reaction took place.
The state stabilized by the addition of KCI or NE was defined as a 100% relaxation rate, on the basis of which what reaction took place at each concentration was relatively estimated.

poikilocytes = assay: Ex-vivo amelioration of poikilocytes (filtration under pressure of erythrocyte suspension); assay type: in vivo; settings: rat
Experimental: (§3) Five minutes after the test compound had been intravenously administered to the tail of a rat, blood was gathered from the descending aorta of the rat which was lightly etherized. Added to this blood was citric acid (3.8% sodium citrate) in a volume ratio of 1/10.
Blood gathered with the addition of citric acid was centrifuged at 4°C and 1500 rpm for 10 minutes. The supernatant fluid was discarded. Added to the residues was physiological saline in an amount of about 1.5 times as large, again followed by 10-minute centrifugation at 4°C and 1500 rpm. The supernatant fluid was discarded. One hundred (100) µl of erythrocytes left upon such procedures repeated twice were diluted with physiological saline to prepare 50 ml of a 0.2 % erythrocyte suspension. This suspension was incubated at 37°C for 5 minutes, cooled down to room temperature and examined to find how much the poikilocytes were ameliorated by the filtration-under-pressure procedures described by F. Katsuraya in "Geriatric Medicine", Vol. 20, pp. 151-156 (1982).
To this end, the suspension sample was passed from a continuous feeder through a Millipore membrane having a mean pore size of […] at a rate of 5 ml/min, during which the pressure on the upstream side of the membrane was measured through a pressure transducer with a pressure amplifier and, at the same time, was recorded on a polygraph chart sheet.

aldose reductase = aldose reductase (Rattus norvegicus, UniProt P07943); assay: Action on aldose reductase inhibition (method of Kador et al.); assay type: biochemical; settings: 50 % inhibition of aldose reductase
From the text: Chem.", Vol. 8, page 81 (1978) to detrermine how much they inhibited aldose reductase.
Note that IC50 is an index to the 50 % inhibition of aldose reductase.

[4] = tested on: coronary artery bloodstream; assay: Coronary bloodstream of dogs under anesthesia (i.v.); assay type: in vivo; settings: anesthetized dogs, control 8.7±2.1
Experimental: Fully developed, mongrel male and female dogs were each put under anesthesia with sodium pentobarbital and subjected to commissurotomy while artificial respiration was applied to them. The coronary artery bloodstream was determined with an electromagnetic bloodstream probe attached to the ramus circumflexus of the left coronary artery.
Each of the test compounds was administered to the animal through a cannula fixedly inserted into the cephalic vein.

erythrocytes = assay: Oxygen dissociation of erythrocytes (HEMOX-ANALYZER), ex vivo; assay type: in vivo, rat; settings: 10 mg/kg; control mean 31.08
From the text: as §3
Blood gathered with the addition of heparin was used to determine the oxygen dissociation of the erthro- cytes with HEMOX-ANALYZER.

[5] = Rattus norvegicus, read-out: IC50 Collagen
[6] = 10^-4(M), right atrium, suppression
[7] = 10^-5(M), right atrium, suppression
[8] = 10^-4(M), left atrium, suppression
[9] = 10^-5(M), left atrium, suppression
[10] = rat PRP, aggregation inducer collagen, read-out: IC50 Collagen
[11] = 50% relaxation, contraction by KCl 2.5 x 10^-2M, read-out: IC50(M) Contraction by KCl
[12] = 50% relaxation, contraction by norepinephrine 10^-6 g/ml, read-out: IC50(M) Contraction by NE

IC50 (platelet aggregation [1]; [10]) [µM] | IC50 [3, 11] [M] | IC50 [3, 12] [M] | IC50 (aldose reductase) [µM] | SMILES | inhibition at 100 µM (right atrium; [6]) [%] | inhibition at 10 µM (right atrium; [7]) [%] | inhibition at 100 µM (left atrium; [8]) [%] | inhibition at 10 µM (left atrium; [9]) [%] | other results
– | – | – | – | CC(=O)Oc1ccccc1C(=O)O [Aspirin, reference compound] | – | – | – | – | IC50 (platelet aggregation [1]; [5]): 210 µM; Collagen (10 μM) (platelet aggregation [2]; 30.0 mg/kg intravenously): 77%
– | – | – | – | CC(C(O)c1ccc(O)cc1)N1CCC(Cc2ccccc2)CC1 (stereo not shown) [B, ifenprodil, reference compound] | > 20 | > 20 | 10 to 20 | 0 | –
– | – | – | – | COc1cc(/C=C/C(=O)N2CCN(CC(=O)N3CCCC3)CC2)cc(OC)c1OC [Cinepazid, reference compound] | – | – | – | – | IC50 ([3]; read-out: IC50(M) Contraction by KCl): 0.002 M; IC50 ([3]; read-out: IC50(M) Contraction by NE): 0.001 M
630 | 1.3e-06 | 1e-05 | 0.31 | O=C1NC(=O)[C@@]2(C[C@@H](C(=O)N3CCC(Cc4ccccc4)CC3)Oc3ccc(F)cc32)N1 [Compound 1] | 0 | 0 | 10 to 20 | 0 | Amelioration in % (poikilocytes; 0.1 mg/kg intravenously): 29.3%; ADP (1 x 10^-6M) (platelet aggregation [2]; 1.0 mg/kg intravenously, inducer ADP 1 x 10^-6M): 44* %; Collagen (10 μM) (platelet aggregation [2]; 1.0 mg/kg intravenously): 57%; C.B.S. (coronary bloodstream) ([4]; 0.1 mg/kg i.v.): 9.6±6.9
430 | 0.00012 | 1e-06 | 0.045 | O=C1NC(=O)[C@@]2(C[C@@H](C(=O)N3CCN(C(c4ccccc4)c4ccccc4)CC3)Oc3ccc(F)cc32)N1 [Compound 2, 4-diphenylmethyl-1-{(2S,4S)-6-fluoro-2,5'-dioxospiro[chromane-4,4'-imidazolidine]-2-carbonyl}piperazine] | > 20 | 10 to 20 | 10 to 20 | 0 | IC50 (platelet aggregation [1]; rat PRP, aggregation inducer ADP, read-out: IC50 ADP): 770 µM; P50 in mmHg Mean (erythrocytes): 32.58 mmHg; Amelioration in % (poikilocytes; 1.0 mg/kg intravenously): 37.9%; C.B.S. (coronary bloodstream) ([4]; 1.0 mg/kg i.v.): 13.8±2.9
370 | > 0.001 | > 0.001 | 0.41 | O=C1NC(=O)[C@@]2(C[C@@H](C(=O)N3CCN(CC=Cc4ccccc4)CC3)Oc3ccc(F)cc32)N1 [Compound 3, 4-cinnamyl-1-{(2S,4S)-6-fluoro-2',5'-dioxospiro[chromane-4,4'-imidazolidine]-2-carbonyl}piperazine] | > 20 | 10 to 20 | 10 to 20 | 0 | –
– | – | – | – | CC(C)NCC(O)COc1cccc2ccccc12 (stereo not shown) [Control A, propranolol, reference compound] | – | – | – | – | inhibition at 10 µM (right atrium): > 20%; inhibition at 100 µM (right atrium): > 20%; inhibition at 10 µM (left atrium): > 20%; inhibition at 100 µM (left atrium): > 20%
– | – | – | – | COc1ccc2c(c1)c(CC(=O)O)c(C)n2C(=O)c1ccc(Cl)cc1 [Indomethacin, reference compound] | – | – | – | – | IC50 (platelet aggregation [1]; [5]): 68 µM; Collagen (10 μM) (platelet aggregation [2]; 30.0 mg/kg intravenously): 49%
